We go through one molecule from patent US7501275B2, “Yeast transformation system” (The United States of America as represented by the …, priority 2004, dated 2009).

This assay has as its system Pichia stipitis UC7 NRRL Y-21448. In words: Testing for sensitivity to Zeocin: plating on YPD pH 7.5 with Zeocin. The class given is cell-based. Conditions: plated on YPD pH 7.5; Zeocin tested from 25 μg/ml to 500 μg/ml. The method, then: Pichia stipitis UC7 NRRL Y-21448 (2) is a ura3 auxotrophic mutant of P. stipitis CBS 6054 (ARS Culture Collection, NRRL USDA Peoria, Ill.). To test if Pichia stipitis UC7 is sensitive to Zeocin, UC7 was plated on YPD (Kaiser, Michaelis and Mitchell, 1994) pH 7.5 (1% yeast extract, 2% peptone, 2% dextrose, NaOH to pH 7.5) in the presence of Zeocin (Invitrogen) at a concentration of from 25 μg/ml to 500 μg/ml. Zeocin concentrations of 100 μg/ml or greater killed Pichia stipitis UC7.

Some results are limits rather than exact numbers.

Regarding `Cc1c(N)nc([C@H](CC(N)=O)NC[C@H](N)C(N)=O)nc1C(=O)N[C@H](C(=O)N[C@H](C)[C@@H](O)[C@H](C)C(=O)N[C@H](C(=O)NCCC1=N[C@@H](c2nc(C(=O)NCCCCN=C(N)N)cs2)CS1)[C@@H](C)O)[C@@H](O[C@@H]1O[C@@H](CO)[C@@H](O)[C@H](O)[C@@H]1O[C@H]1O[C@H](CO)[C@@H](O)[C@H](OC(N)=O)[C@@H]1O)c1cnc[nH]1` [Zeocin], the “Zeocin concentrations that killed Pichia stipitis UC7” value was ≥ 100 µg/mL.
